Measured values as given in patent publication US11000601B2, “Conjugated biological molecules, pharmaceutical compositions and methods” (OBI Pharma, Inc., priority 2016, dated 2021).
Several values for one entry are separate records, joined by “and”; a condition that tells them apart may be missing. Identical values can stand only once. Square brackets hold non-standard residues; d marks the D form. Peptide text beside a SMILES is read from it. * marks the point of attachment. Dolaproine = CO[C@@H]([C@@H]1CCCN1)[C@@H](C)C(=O)O; Dil = CC[C@H](C)[C@H](NC)[C@@H](CC(=O)O)OC; X1 = C[C@@H](N*)[C@@H](O)c1ccccc1; NMeV = CN[C@H](C(=O)O)C(C)C

Legend:
[1] = system: MCF-7 (ATCC HTB-22) human breast adenocarcinoma; test: Xenograft tumor model of human breast adenocarcinoma MCF-7 in nude mice: tumor volume, T/C; assay type: in vivo; conditions: for Tumor Volume, individual mouse: mice No. 1-6
Protocol: In a xenograft tumor model of human breast adenocarcinoma, MCF-7 (ATCC HTB-22) cells were subcutaneously (SC) implanted (2.0×10^7 cells in 1:1 matrigel/media mixture at 0.2 mL/mouse) into the right flank of female athymic (nu/nu) nude mice. Supplemental injections of estradiol cyclopentyl propionate (100 μg/mouse) were administered subcutaneously between the scapulae twice weekly, from one week prior to cell implantation to study completion. Tumor-implanted mice were divided into eleven treatment groups, each group containing six animals, and test agent administrations were initiated one day after cell implantation (denoted as Day 1). 3.1 Test Substances and Dosing Pattern
Two control groups received intravenous injections of vehicle (25 mM Sodium Citrate, pH 6.5+100 mM NaCl) once weekly for either six weeks (group 1) or two weeks (group 2).
Human breast adenocarcinoma tumor cell line, MCF-7 (ATCC HTB-22, breast adenocarcinoma), was provided by the Sponsor. The tumor cells were prepared and cultured by the Sponsor (1×10^8 cells/mL), and 0.2 mL MCF-7 tumor cell inoculum containing 2×10^7 cells (mixture of matrigel and medium; 1:1) was implanted subcutaneously in the right flank of each mouse.
Female (nu/nu) nude mice aged 6-7 weeks obtained from BioLasco Taiwan (under Charles River Laboratories Licensee) were used. The animals were housed in individually ventilated cages (IVG, 36 Mini Isolator System). The allocation for 3-5 animals was 27×20×14 in cm. All animals were maintained in a hygienic environment under controlled temperature (20-24° C.) and humidity (30-70%) with 12-hour light/dark cycle. Free access to standard lab diet (Oriental Yeast Co., Ltd., Japan) and autoclaved tap water were granted. All aspects of this work including housing, experimentation, and animal disposal were performed in general accordance with the “Guide for the Care and Use of Laboratory Animals: Eighth Edition” (National Academies Press, Washington, D.C., 2011) in our AAALAC-accredited laboratory animal facility. In addition, the animal care and use protocol was reviewed and approved by the IACUC at Eurofins Panlabs Taiwan, Ltd.
The tumor volumes, body weights, mortality, and signs of overt toxicity were monitored and recorded twice weekly for 77 days. Tumor volume (mm^3) was calculated according to the formula for a prolate ellipsoid: length (mm)×[width (mm)]^2×0.5. Tumor growth inhibition was calculated as T/C (treatment/control)×100%. A T/C value≤42% was considered significant anti-tumor activity. Two-way ANOVA followed by Bonferroni test was used to ascertain the statistical significance of groups compared to respective vehicle control (*p<0.05).

[2] = Body weight in male BALB/c nude mice bearing HPAC established tumors; conditions: QW x 4, MMAE 0.191 mg/kg IP; for Body Weight (g), Mean: group mean; for Body Weight (g), Mean / Body Weight: ADC (OBI-999) and OBI-888 10 mg/kg IV; for Body Weight: individual animals
Protocol: Male nu/nu nude, aged 6-8 weeks, were obtained from Shanghai Lingchang and used. The mice were kept in individual ventilation cages at constant temperature and humidity with four animals in each cage (temperature: 20-26° C. and humidity: 40-70%). The cages were made of polycarbonate and the size was 300 mm×200 mm×180 mm. The bedding material was corn cob, which was changed twice per week. Animals had free access to irradiation sterilized dry granule food and drinking water during the entire study period. The identification labels for each cage contained the following information: number of animals, sex, strain, date received, treatment, study number, group number and the starting date of the treatment.

[3] = 0.057 mg/kg × 6, IV, once weekly, Day 1
[4] = 0.057 mg/kg × 6, IV, once weekly, Day 5
[5] = 0.057 mg/kg × 6, IV, once weekly, Day 8
[6] = 0.057 mg/kg × 6, IV, once weekly, Day 12
[7] = 0.057 mg/kg × 6, IV, once weekly, Day 15
[8] = 0.057 mg/kg × 6, IV, once weekly, Day 19
[9] = 0.057 mg/kg × 6, IV, once weekly, Day 22
[10] = 0.057 mg/kg × 6, IV, once weekly, Day 26
[11] = 0.057 mg/kg × 6 IV once weekly, Day 29
[12] = 0.057 mg/kg × 6 IV once weekly, Day 33
[13] = 0.057 mg/kg × 6 IV once weekly, Day 36
[14] = 0.057 mg/kg × 6 IV once weekly, Day 40
[15] = 0.057 mg/kg × 6 IV once weekly, Day 43
[16] = 0.057 mg/kg × 6 IV once weekly, Day 46
[17] = 0.057 mg/kg × 6 IV once weekly, Day 49
[18] = Gr. 11, 0.057 mg/kg × 6, IV, once weekly, Day 53
[19] = Gr. 11, 0.057 mg/kg × 6, IV, once weekly, Day 56
[20] = Gr. 11, 0.057 mg/kg × 6, IV, once weekly, Day 60
[21] = Gr. 11, 0.057 mg/kg × 6, IV, once weekly, Day 63
[22] = Gr. 11, 0.057 mg/kg × 6, IV, once weekly, Day 67
[23] = Gr. 11, 0.057 mg/kg × 6, IV, once weekly, Day 70
[24] = Gr. 11, 0.057 mg/kg × 6, IV, once weekly, Day 74
[25] = Gr. 11, 0.057 mg/kg × 6, IV, once weekly, Day 77

CC[C@H](C)[C@@H]([C@@H](CC(=O)N1CCC[C@H]1[C@H](OC)[C@@H](C)C(=O)N[C@H](C)[C@@H](O)c1ccccc1)OC)N(C)C(=O)[C@@H](NC(=O)[C@@H](NC)C(C)C)C(C)C [MMAE, monomethyl auristatin E] (H-[NMeV]V[Dil][Dolaproine]-X1)
anti-tumor activity (in words) ([1]; 0.057 mg/kg IV once weekly for six weeks, during and for a short time after the dosing phase): modest-to-moderate anti-tumor activity
% T/C [1, 3]: 101%
Tumor Volume, Mean [1, 3]: 161 mm^3
Tumor Volume, single mouse (No. 1-6) [1, 3]: 141 mm^3 and 139 mm^3 and 162 mm^3 and 186 mm^3 and 152 mm^3 and 188 mm^3
% T/C [1, 4]: 97%
Tumor Volume, Mean [1, 4]: 119 mm^3
Tumor Volume, single mouse (No. 1-6) [1, 4]: 110 mm^3 and 123 mm^3 and 145 mm^3 and 104 mm^3 and 106 mm^3 and 128 mm^3
% T/C [1, 5]: 96%
Tumor Volume, Mean [1, 5]: 132 mm^3
Tumor Volume, single mouse (No. 1-6) [1, 5]: 121 mm^3 and 125 mm^3 and 139 mm^3 and 131 mm^3 (2×) and 146 mm^3
% T/C [1, 6]: 71%
Tumor Volume, Mean [1, 6]: 114 mm^3
Tumor Volume, single mouse (No. 1-6) [1, 6]: 101 mm^3 and 104 mm^3 and 133 mm^3 and 115 mm^3 and 103 mm^3 and 129 mm^3
% T/C [1, 7]: 72%
Tumor Volume, Mean [1, 7]: 116 mm^3
Tumor Volume, single mouse (No. 1-6) [1, 7]: 102 mm^3 and 101 mm^3 and 127 mm^3 and 105 mm^3 and 137 mm^3 and 121 mm^3
% T/C [1, 8]: 64%
Tumor Volume, Mean [1, 8]: 130 mm^3
Tumor Volume, single mouse (No. 1-6) [1, 8]: 137 mm^3 and 113 mm^3 and 125 mm^3 and 121 mm^3 and 148 mm^3 and 135 mm^3
% T/C [1, 9]: 61%
Tumor Volume, Mean [1, 9]: 140 mm^3
Tumor Volume, single mouse (No. 1-6) [1, 9]: 123 mm^3 and 137 mm^3 (2×) and 138 mm^3 and 164 mm^3 and 143 mm^3
% T/C [1, 10]: 54%
Tumor Volume, Mean [1, 10]: 143 mm^3
Tumor Volume, single mouse (No. 1-6) [1, 10]: 135 mm^3 and 127 mm^3 and 119 mm^3 and 154 mm^3 and 179 mm^3 and 144 mm^3
% T/C [1, 11]: 54%
Tumor Volume, Mean ([1]; 0.057 mg/kg × 6 IV once weekly, Day 29, group mean): 151 mm^3
Tumor Volume, individual mouse [1, 11]: 146 mm^3 and 131 mm^3 and 119 mm^3 and 156 mm^3 and 194 mm^3 and 160 mm^3
% T/C [1, 12]: 55%
Tumor Volume, Mean ([1]; 0.057 mg/kg × 6 IV once weekly, Day 33, group mean): 168 mm^3
Tumor Volume, individual mouse [1, 12]: 162 mm^3 and 152 mm^3 and 133 mm^3 and 168 mm^3 and 216 mm^3 and 177 mm^3
% T/C [1, 13]: 59%
Tumor Volume, Mean ([1]; 0.057 mg/kg × 6 IV once weekly, Day 36, group mean): 192 mm^3
Tumor Volume, individual mouse [1, 13]: 171 mm^3 and 154 mm^3 and 152 mm^3 and 201 mm^3 and 256 mm^3 and 218 mm^3
% T/C [1, 14]: 61%
Tumor Volume, Mean ([1]; 0.057 mg/kg × 6 IV once weekly, Day 40, group mean): 210 mm^3
Tumor Volume, individual mouse [1, 14]: 184 mm^3 and 186 mm^3 and 156 mm^3 and 223 mm^3 and 285 mm^3 and 226 mm^3
% T/C [1, 15]: 63%
Tumor Volume, Mean ([1]; 0.057 mg/kg × 6 IV once weekly, Day 43, group mean): 232 mm^3
Tumor Volume, individual mouse [1, 15]: 186 mm^3 (2×) and 239 mm^3 and 242 mm^3 and 296 mm^3 and 240 mm^3
% T/C [1, 16]: 65%
Tumor Volume, Mean ([1]; 0.057 mg/kg × 6 IV once weekly, Day 46, group mean): 256 mm^3
Tumor Volume, individual mouse [1, 16]: 204 mm^3 and 261 mm^3 and 222 mm^3 and 258 mm^3 and 332 mm^3 and 259 mm^3
% T/C [1, 17]: 64%
Tumor Volume, Mean ([1]; 0.057 mg/kg × 6 IV once weekly, Day 49, group mean): 272 mm^3
Tumor Volume, individual mouse [1, 17]: 210 mm^3 and 270 mm^3 and 235 mm^3 and 301 mm^3 and 351 mm^3 and 264 mm^3
% T/C (tumor volume, treatment/control) [1, 18]: 64%
Tumor Volume, Mean [1, 18]: 290 mm^3
Tumor Volume, individual animals No. 1-6 [1, 18]: 216 mm^3 and 291 mm^3 and 268 mm^3 and 319 mm^3 and 373 mm^3 and 270 mm^3
% T/C (tumor volume, treatment/control) [1, 19]: 65%
Tumor Volume, Mean [1, 19]: 323 mm^3
Tumor Volume, individual animals No. 1-6 [1, 19]: 305 mm^3 and 249 mm^3 and 325 mm^3 and 329 mm^3 and 399 mm^3 and 328 mm^3
% T/C (tumor volume, treatment/control) [1, 20]: 65%
Tumor Volume, Mean [1, 20]: 357 mm^3
Tumor Volume, individual animals No. 1-6 [1, 20]: 312 mm^3 and 262 mm^3 and 383 mm^3 and 373 mm^3 and 453 mm^3 and 358 mm^3
% T/C (tumor volume, treatment/control) [1, 21]: 71%
Tumor Volume, Mean [1, 21]: 421 mm^3
Tumor Volume, individual animals No. 1-6 [1, 21]: 286 mm^3 and 422 mm^3 and 494 mm^3 and 418 mm^3 and 496 mm^3 and 412 mm^3
% T/C (tumor volume, treatment/control) [1, 22]: 71%
Tumor Volume, Mean [1, 22]: 469 mm^3
Tumor Volume, individual animals No. 1-6 [1, 22]: 307 mm^3 and 458 mm^3 and 598 mm^3 and 455 mm^3 and 505 mm^3 and 489 mm^3
% T/C (tumor volume, treatment/control) [1, 23]: 73%
Tumor Volume, Mean [1, 23]: 512 mm^3
Tumor Volume, individual animals No. 1-6 [1, 23]: 333 mm^3 and 591 mm^3 and 603 mm^3 and 493 mm^3 and 523 mm^3 and 528 mm^3
% T/C (tumor volume, treatment/control) [1, 24]: 79%
Tumor Volume, Mean [1, 24]: 584 mm^3
Tumor Volume, individual animals No. 1-6 [1, 24]: 365 mm^3 and 625 mm^3 and 681 mm^3 and 570 mm^3 and 568 mm^3 and 695 mm^3
% T/C (tumor volume, treatment/control) [1, 25]: 83%
Tumor Volume, Mean [1, 25]: 736 mm^3
Tumor Volume, individual animals No. 1-6 [1, 25]: 410 mm^3 and 922 mm^3 and 760 mm^3 and 632 mm^3 and 807 mm^3 and 887 mm^3
Body Weight (g), Mean ([2]; Day 0): 24.2 g
Body Weight ([2]; Day 0): 25.4 g and 24.2 g and 23.3 g and 24.0 g and 22.7 g
Body Weight (g), Mean ([2]; Day 3): 22.1 g
Body Weight ([2]; Day 3): 21.8 g and 22.4 g and 21.5 g and 21.6 g (2×) and 24.0 g and 20.7 g and 23.1 g
Body Weight (g), Mean ([2]; Day 4): 21.9 g
Body Weight ([2]; Day 4): 21.0 g and 21.3 g and 20.5 g and 22.0 g and 19.6 g and 22.1 g
Body Weight (g), Mean ([2]; Day 7): 23.6 g
Body Weight ([2]; Day 7): 18.8 g and 25.1 g and 27.0 g and 21.7 g and 23.8 g
Body Weight ([2]; Day 9): 22.2 g
Body Weight ([2]; Day 10): 26.0 g
Body Weight ([2]; Day 14): 24.4 g and 26.0 g
Body Weight ([2]; Day 17): 23.9 g and 26.0 g and 23.6 g
Body Weight ([2]; Day 21): 23.8 g
Body Weight (g), Mean ([2]; Day 28): 25.4 g
Body Weight ([2]; Day 31): 25.0 g and 25.4 g
Body Weight (g), Mean ([2]; Day 35): 26.0 g
Body Weight ([2]; Day 35): 27.2 g
Body Weight ([2]; Day 37): 26.7 g and 24.0 g
Animal status (Died / Euthanized) ([2]; individual animal, OBI-888 10 mg/kg IV): Died and Euthanized
